These are literature values, as cited in US11452308B2, “Method of selecting a probiotic” (SOCIETE DES PRODUITS NESTLE S.A., priority 2017, dated 2022).

For series [1] the following is noted: compared with hydroxytyrosol.
The conditions of series [2]: in vivo.

On to hydroxytyrosol acetate, for which the “solubility in the lipophilic phases” value in series [1] is “more soluble in the lipophilic phases than hydroxytyrosol”.

For the compound `CC=C1C(O)OC=C(C(=O)OC)C1CC(=O)OCCc1ccc(O)c(O)c1` (centres unmarked) [oleuropein aglycone, 3,4-dihydroxyphenylethanol-elenolic acid], the “clearance from the plasma” value in series [2] is reported as “slower clearance from the plasma”.
